Columns and labels:
[1] = target: T1, Bromodomain-containing protein 4 (Homo sapiens, UniProt O60885); assay: (§1) Displacement of tetra-acetylated histone H4 peptide (1-21) from recombinant human N-terminal His-tagged BRD4 BD1 (44 to 170 residues) expressed in Escherichia coli incubated for 30 mins followed by further incubation with tetra-acetylated histone H4 peptide (1-21) for 30 mins by Alphascreen assay
[2] = target: T1, Bromodomain-containing protein 4; assay: Displacement of tetra-acetylated histone H4 peptide (1-21) from recombinant human N-terminal His-tagged BRD4 BD2 (349 to 460 residues) expressed in Escherichia coli incubated for 30 mins followed by further incubation with tetra-acetylated histone H4 peptide (1-21) for 30 mins by Alphascreen assay
[3] = target: T1, Bromodomain-containing protein 4; assay: Binding affinity to recombinant human N-terminal His-tagged BRD4 BD1 (44 to 170 residues) expressed in Escherichia coli assessed as change in melting temperature at 10 uM by SYPRO Orange based differential scanning fluorimetry
RAW264.7 = assay: Inhibition of LPS-induced NO overproduction in mouse RAW264.7 cells at 1 uM incubated for 2 hrs followed by LPS stimulation and measured after 22 hrs by Griess reagent based assay relative to control; format: functional; settings: for inhibition at 1 µM: Mus musculus, RAW264.7
[4] = target: T1, Bromodomain-containing protein 4; assay: as §1, with “coli assessed as protein activity at 2 uM” for “coli”

| Compound | IC50 [1] [nM] | IC50 [2] [nM] | ΔTm [3] [°C] | inhibition at 1 µM (RAW264.7) [%] | Activity [4] [%] | inhibition (INH) (RAW264.7) [%] |
| --- | --- | --- | --- | --- | --- | --- |
| COc1ccccc1S(=O)(=O)Nc1ccc2c3c(cc(-c4ccoc4)cc13)C(=O)N2C | 164 | – | – | – | – | – |
| COc1ccccc1S(=O)(=O)Nc1ccc2c3c(cc(N4CCC(CO)CC4)nc13)C(=O)N2C | 169 | 29600 | – | – | – | – |
| COc1ccccc1S(=O)(=O)Nc1ccc2c3c(cc(Cl)nc13)C(=O)N2C | 656 | – | – | – | – | – |
| CN1C(=O)c2cccc3c(NS(=O)(=O)c4ccc(Cl)cc4)ccc1c23 | 167 | 2720 | 6.5 | 15.1 | – | – |
| CN1C(=O)c2cccc3c(NS(=O)(=O)c4ccccc4Cl)ccc1c23 | 1530 | 6050 | 5.37 | – | – | – |
| COc1ccccc1S(=O)(=O)Nc1ccc2c3c(ccnc13)C(=O)N2C | 205 | 4600 | 7.64 | 94.3 | – | – |
| COc1ccccc1S(=O)(=O)Nc1ccc2c3c(cc(-c4cnn(C5CC5)c4)cc13)C(=O)N2C | 14.4 | 238 | – | 83.7 | – | – |
| CN1C(=O)c2cccc3c(NS(=O)(=O)c4c(Cl)cccc4Cl)ccc1c23 | – | – | 2.75 | – | 91.1 | – |
| CN1CCN(c2cc3c4c(ccc(NS(=O)(=O)c5ccc(Cl)cc5)c4n2)N(C)C3=O)CC1 | 391 | – | – | – | – | – |
| COc1ccccc1S(=O)(=O)Nc1ccc2c3c(cc(N[C@H](C)c4ccccn4)nc13)C(=O)N2C | 2230 | – | – | – | – | – |
| COc1ccccc1S(=O)(=O)Nc1ccc2c3c(cc(NCCN4CCCCC4)nc13)C(=O)N2C | 328 | 7070 | – | – | – | – |
| COc1ccccc1S(=O)(=O)Nc1ccc2c3c(cc(-n4ccnc4)nc13)C(=O)N2C | 889 | 4110 | – | – | – | – |
| COc1ccccc1S(=O)(=O)Nc1ccc2c3c(cc(-c4cnn(Cc5ccccc5)c4)cc13)C(=O)N2C | 205 | – | – | – | – | – |
| CN1C(=O)c2cc(-c3ccoc3)cc3c(NS(=O)(=O)c4ccc(Cl)cc4)ccc1c23 | – | – | – | – | 56.6 | – |
| COc1ccccc1S(=O)(=O)Nc1ccc2c3c(cccc13)C(=O)N2C | 49.5 | 2480 | 8.72 | 51.4 | – | – |
| COc1ccccc1S(=O)(=O)Nc1ccc2c3c(cc(NC(C)(C)C)nc13)C(=O)N2C | 573 | 2080 | – | – | – | – |
| COc1ccccc1S(=O)(=O)Nc1ccc2c3c(cc(N4CCN(C(=O)OC(C)(C)C)CC4)nc13)C(=O)N2C | 334 | 2170 | – | – | – | – |
| COc1ccccc1S(=O)(=O)Nc1ccc2c3c(cc(-c4ccoc4)nc13)C(=O)N2C | 37 | 459 | – | 66.3 | – | – |
| CN1C(=O)c2cccc3c(NS(=O)(=O)c4cccs4)ccc1c23 | 3720 | – | 4.02 | – | – | – |
| COc1ccc(Cl)cc1S(=O)(=O)Nc1ccc2c3c(cc(-c4cnn(C5CC5)c4)cc13)C(=O)N2C | – | – | – | – | 64.9 | – |

| Compound | IC50 [1] [nM] | IC50 [2] [nM] | ΔTm [3] [°C] | inhibition at 1 µM (RAW264.7) [%] | Activity [4] [%] | inhibition (INH) (RAW264.7) [%] |
| --- | --- | --- | --- | --- | --- | --- |
| COc1ccccc1S(=O)(=O)Nc1ccc2c3c(cc(NCC4CCN(C)CC4)nc13)C(=O)N2C | 113 | 1280 | – | 47.2 | – | – |
| COc1ccccc1S(=O)(=O)Nc1ccc2c3c(cc(N4CCN(C)CC4)nc13)C(=O)N2C | 100 | 2120 | – | 92.5 | – | – |
| O=C1Nc2ccc(NS(=O)(=O)c3ccc(Cl)cc3)c3cccc1c23 | 769 | 15500 | 3.73 | – | – | – |
| CN1C(=O)c2cc(-c3cnn(C4CC4)c3)cc3c(NS(=O)(=O)c4ccc(Cl)cc4F)ccc1c23 | – | – | – | – | 65.2 | – |
| CN1C(=O)c2cccc3c(NS(=O)(=O)c4cccnc4)ccc1c23 | 2440 | 13700 | 2.3 | – | – | – |
| CN1C(=O)c2cc(Cl)nc3c(NS(=O)(=O)c4ccc(Cl)cc4)ccc1c23 | 2600 | – | – | – | – | – |
| COc1ccccc1S(=O)(=O)Nc1ccc2c3c(cc(N4CCOCC4)nc13)C(=O)N2C | 95.2 | 808 | – | 100 | – | – |
| COc1cc(OC)c2c(=O)[nH]c(-c3cc(C)c(OCCO)c(C)c3)nc2c1 [APABETALONE] | – | – | – | 9.17 | – | – |
| COc1ccccc1S(=O)(=O)Nc1ccc2c3c(cc(NCCN4CCN(C)CC4)nc13)C(=O)N2C | 223 | 1520 | – | 39.6 | – | – |
| CN1C(=O)c2cccc3c(NS(=O)(=O)c4cccc(Cl)c4F)ccc1c23 | 1700 | – | 4.83 | – | – | – |
| CN1C(=O)c2cc(N3CCOCC3)nc3c(NS(=O)(=O)c4ccc(Cl)cc4)ccc1c23 | 217 | – | – | – | – | – |
| CCCn1cc(-c2cc3c4c(ccc(NS(=O)(=O)c5ccc(Cl)cc5OC)c4c2)N(C)C3=O)cn1 | 107 | 320 | – | – | – | – |
| CCOC(=O)CC1CCN(c2cc3c4c(ccc(NS(=O)(=O)c5ccccc5OC)c4n2)N(C)C3=O)CC1 | 709 | – | – | – | – | – |
| CN1C(=O)c2cccc3c(NS(=O)(=O)c4c(F)cccc4F)ccc1c23 | 9070 | – | 3.73 | – | – | – |
| CN1C(=O)c2cccc3c(NS(=O)(=O)c4ccc(F)cc4Cl)ccc1c23 | 91.3 | 3830 | 6.23 | 98.1 | – | – |
| Cc1cc(F)ccc1S(=O)(=O)Nc1ccc2c3c(cccc13)C(=O)N2C | 810 | – | 4.32 | – | – | – |
| COc1ccccc1S(=O)(=O)Nc1ccc2c3c(cc(-c4cnn(C5CC5)c4)nc13)C(=O)N2C | 16.6 | 107 | – | – | – | – |
| COc1cc(Cl)ccc1S(=O)(=O)Nc1ccc2c3c(cc(-c4cnn(C5CC5)c4)cc13)C(=O)N2C | 37.5 | 435 | – | – | – | – |
| CN1C(=O)c2cc(-c3cnn(C4CC4)c3)cc3c(NS(=O)(=O)c4ccc(Cl)cc4)ccc1c23 | 666 | – | – | – | – | – |
| COc1ccccc1S(=O)(=O)N(C)c1ccc2c3c(cccc13)C(=O)N2C | – | – | 1.06 | – | 90.4 | – |

| Compound | IC50 [1] [nM] | IC50 [2] [nM] | ΔTm [3] [°C] | inhibition at 1 µM (RAW264.7) [%] | Activity [4] [%] | inhibition (INH) (RAW264.7) [%] |
| --- | --- | --- | --- | --- | --- | --- |
| CN1C(=O)c2cccc3c(NS(=O)(=O)c4cccc5cccnc45)ccc1c23 | 329 | 260 | 4.13 | – | – | – |
| CN1C(=O)c2cc(-c3cnn(C4CC4)c3)cc3c(NS(=O)(=O)c4ccc(Cl)cc4Cl)ccc1c23 | – | – | – | – | 61.8 | – |
| COc1cc(Cl)ccc1S(=O)(=O)Nc1ccc2c3c(cccc13)C(=O)N2C | 299 | 3470 | 7.1 | – | – | – |
| CN1C(=O)c2ccnc3c(NS(=O)(=O)c4ccc(Cl)cc4)ccc1c23 | 3470 | 20500 | 6.53 | – | – | – |
| CN1C(=O)c2ccnc3c(NS(=O)(=O)c4ccc(Cl)cc4F)ccc1c23 | – | – | 2.31 | – | 87.4 | – |
| Cc1ccccc1NS(=O)(=O)c1ccc2c3c(cccc13)C(=O)N2C | 15500 | – | 2.23 | – | – | – |
| COc1ccccc1S(=O)(=O)Nc1ccc2c3c(cc(NCC4CCOCC4)nc13)C(=O)N2C | 503 | – | – | – | – | – |
| CCN1C(=O)c2cccc3c(NS(=O)(=O)c4ccc(Cl)cc4)ccc1c23 | 237 | 2720 | 6.36 | – | – | – |
| CN1C(=O)c2cccc3c(NS(=O)(=O)c4ccccc4OC(F)(F)F)ccc1c23 | 3890 | – | 4.73 | – | – | – |
| COc1ccccc1S(=O)(=O)Nc1ccc2c3c(cc(NC4CC4)nc13)C(=O)N2C | 271 | 660 | – | – | – | – |
| CN1C(=O)c2cc(-c3cnn(C)c3)cc3c(NS(=O)(=O)c4ccc(Cl)cc4)ccc1c23 | 348 | – | – | – | – | – |
| Cc1ccc(S(=O)(=O)Nc2ccc3c4c(ccnc24)C(=O)N3C)cc1 | 1570 | 6620 | 5.12 | – | – | – |
| Cc1ccc(S(=O)(=O)Nc2ccc3c4c(cccc24)C(=O)N3C)cc1 | 545 | 2280 | 7.36 | – | – | – |
| CCCn1cc(-c2cc3c4c(ccc(NS(=O)(=O)c5ccccc5OC)c4c2)N(C)C3=O)cn1 | 43.7 | 266 | – | 106 | – | – |
| Cc1sc2c(c1C)C(c1ccc(Cl)cc1)=N[C@@H](CC(=O)OC(C)(C)C)c1nnc(C)n1-2 | – | – | – | – | – | 47.56 |
| Cc1ccccc1S(=O)(=O)Nc1ccc2c3c(cccc13)C(=O)N2C | 709 | – | 5.1 | – | – | – |
| COc1ccccc1S(=O)(=O)Nc1ccc2c3c(cc(-c4ccco4)nc13)C(=O)N2C | 35.1 | 982 | – | 64.9 | – | – |
| COc1ccccc1S(=O)(=O)Nc1ccc2c3c(cc(-c4cnn(C)c4)cc13)C(=O)N2C | 17.4 | 435 | – | 102 | – | – |
| COc1ccccc1S(=O)(=O)Nc1ccc2c3c(cc(-c4cnn(C)c4)nc13)C(=O)N2C | 12.6 | 289 | – | – | – | – |
| Cc1cc(/N=N/c2ccc(S(=O)(=O)Nc3ccc(C#N)cc3)cc2)cc(C)c1O | 328 | 7070 | – | 43.4 | – | – |

Source: ChEMBL document CHEMBL4354830, “Discovery of Benzo[cd]indol-2(1H)-ones and Pyrrolo[4,3,2-de]quinolin-2(1H)-ones as Bromodomain and Extra-Terminal Domain (BET) Inhibitors with Selectivity for the First Bromodomain with Potential High Efficiency against Acute Gouty Arthritis” (J Med Chem, 2019)
